According to patent US20230233567A1, “BELVARAFENIB FOR USE IN CANCER TREATMENT” (Hanmi Pharm. Co., Ltd., priority 2020, published 2023):
Where two headings read alike, the source gives them in different places.

How the values were obtained:
P-MEK / total MEK = test: % P/T-MEK (ratio of P-MEK and total MEK)
Description: Belvarafenib was evaluated to measure the inhibition capability of RAF monomers and dimers. In Table 12: “A375” refers to the A375 a human melanoma cell line bearing a BRAF^V600E mutation; “IPC298” refers to the IPC298 cutaneous melanoma cell line bearing an NRAS^Q61L mutation; “A549” refers to the A549 lung adenocarcinoma cell line baring a KRAS mutation; “CSFR1” refers to the CSFR1 gene; “DDR1” refers to discoidin domain receptors DDR1; and “DDR2” refers to discoidin domain receptors DDR2. In Table 13: “% P/T−MEK” refers to the ratio of P-MEK and total MEK; “Conc 1” refers to an inhibitor first (lowest) concentration; “Conc 2” refers to an inhibitor second (intermediate) concentration; and “Conc 3” refers to an inhibitor third (highest) concentration. In Table 13, LXH254 refers to a drug having CAS No.: 1800398-38-2 and the following structure: […]

SK-MEL-28 (BRAF^V600E) = test: In vitro cell growth inhibition, melanoma; format: cell-based; conditions: Homo sapiens, mean ± SD, n = 3
A375 (BRAF^V600E) = test: In vitro cell growth inhibition, melanoma; format: cell-based; conditions: Homo sapiens, A-375, mean ± SD, n = 3
SK-MEL-2 (NRAS^Q61R) = test: In vitro cell growth inhibition, melanoma; format: cell-based; conditions: Homo sapiens, mean ± SD, n = 3
Description: (§1) A G150 of 69, 57, 53, and 24 nM were determined for SK-MEL-28, A375, SK-MEL-2, and SK-MEL-30 cell lines, respectively.

SK-MEL-30 (NRAS^Q61K) = test: In vitro cell growth inhibition, melanoma; format: cell-based; conditions: Homo sapiens, mean ± SD, n = 3
Description: as §1

[1] = system: MEK and ERK phosphorylation in HCT116 (KRAS^G13D) cells; test: Inhibition of MEK and ERK phosphorylation, KRAS mutant; format: cell-based; conditions: Homo sapiens, HCT-116, CRC HCT116, KRAS G13D, 2 hr treatment
[2] = system: MEK and ERK phosphorylation in Lovo (KRAS^G13D) cells; test: as above; format: cell-based; conditions: Homo sapiens, CRC Lovo, KRAS G13D, 2 hr treatment
[3] = system: MEK and ERK phosphorylation in Calu-6 (KRAS^Q61K) cells; test: as above; format: cell-based; conditions: Homo sapiens, NSCLC Cau-6 (Calu-6), 2 hr treatment
LS174T (KRAS^G12D) = test: In vitro cell growth inhibition, CRC; format: cell-based; conditions: Homo sapiens
LS513 (KRAS^G12D) = test: In vitro cell growth inhibition, CRC; format: cell-based; conditions: Homo sapiens, LS-513
HCT116 (KRAS^G13D) = test: In vitro cell growth inhibition, CRC; format: cell-based; conditions: Homo sapiens, HCT-116
Lovo (KRAS^G13D) = test: In vitro cell growth inhibition, CRC; format: cell-based; conditions: Homo sapiens
Calu-6 (KRAS^Q61K) = test: In vitro cell growth inhibition, NSCLC; format: cell-based; conditions: Homo sapiens
Calu-1 (KRAS^G12C) = test: In vitro cell growth inhibition, NSCLC; format: cell-based; conditions: Homo sapiens
NRAS-mutant melanoma = NRAS-mutant melanoma patients, NEMO study; cited from earlier work
CSF1R (FMS) = CSF1R (FMS) (Homo sapiens, UniProt P07333); test: In vitro kinase assay; format: biochemical; conditions: confirmatory assay
Description: (§2) The in vitro kinase inhibitory selectivity and activity of belvarafenib were evaluated in a kinase panel assay against 189 kinases and a subsequent confirmatory assay against selected kinases by using Z′-Lyte® biochemical assay, Lantha® binding assay and Adapter® assay.

DDR1 = DDR1 (Homo sapiens, UniProt Q08345); test: In vitro kinase assay; format: biochemical; conditions: confirmatory assay
Description: as §2

DDR2 = target: T1, DDR2 (Homo sapiens, UniProt Q16832); test: In vitro kinase assay; format: biochemical; conditions: confirmatory assay
T1 sequence (Q16832 22-855): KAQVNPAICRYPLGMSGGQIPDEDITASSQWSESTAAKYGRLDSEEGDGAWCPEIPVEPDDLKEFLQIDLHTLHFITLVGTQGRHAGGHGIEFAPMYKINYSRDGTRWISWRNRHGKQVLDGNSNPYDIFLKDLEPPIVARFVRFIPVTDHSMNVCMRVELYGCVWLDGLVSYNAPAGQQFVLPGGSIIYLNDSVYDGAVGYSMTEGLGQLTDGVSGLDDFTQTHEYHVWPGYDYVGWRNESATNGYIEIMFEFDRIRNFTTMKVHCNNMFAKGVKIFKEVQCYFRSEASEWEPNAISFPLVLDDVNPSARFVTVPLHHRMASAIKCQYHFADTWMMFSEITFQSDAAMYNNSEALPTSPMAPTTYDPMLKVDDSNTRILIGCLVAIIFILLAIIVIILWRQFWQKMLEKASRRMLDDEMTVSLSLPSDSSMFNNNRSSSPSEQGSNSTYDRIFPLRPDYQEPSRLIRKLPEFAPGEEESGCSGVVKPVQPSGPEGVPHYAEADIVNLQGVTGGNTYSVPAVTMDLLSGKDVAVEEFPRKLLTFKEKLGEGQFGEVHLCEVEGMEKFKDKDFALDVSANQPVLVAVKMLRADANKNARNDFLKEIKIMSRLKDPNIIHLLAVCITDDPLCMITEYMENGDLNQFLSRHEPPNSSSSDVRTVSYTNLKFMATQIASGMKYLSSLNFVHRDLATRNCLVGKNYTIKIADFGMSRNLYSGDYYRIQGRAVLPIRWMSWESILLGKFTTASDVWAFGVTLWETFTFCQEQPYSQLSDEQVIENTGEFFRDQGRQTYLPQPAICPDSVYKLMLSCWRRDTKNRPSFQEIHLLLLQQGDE
Description: as §2

[4] = system: MEK and ERK phosphorylation in SK-MEL-28 (BRAF^V600E) cells; test: Inhibition of MEK and ERK phosphorylation; format: cell-based; conditions: Homo sapiens
[5] = system: MEK and ERK phosphorylation in A375 (BRAF^V600E) cells; test: Inhibition of MEK and ERK phosphorylation; format: cell-based; conditions: Homo sapiens
[6] = system: MEK and ERK phosphorylation in SK-MEL-2 (NRAS^Q61R) cells; test: Inhibition of MEK and ERK phosphorylation; format: cell-based; conditions: Homo sapiens
[7] = system: MEK and ERK phosphorylation in SK-MEL-30 (NRAS^Q61K) cells; test: Inhibition of MEK and ERK phosphorylation; format: cell-based; conditions: Homo sapiens
HT-29 (BRAF^V600E) = test: In vitro cell growth inhibition, CRC; format: cell-based; conditions: Homo sapiens
Colo-205 (BRAF^V600E) = test: In vitro cell growth inhibition, CRC; format: cell-based; conditions: Homo sapiens
SNU790 (BRAF^V600E) = test: In vitro cell growth inhibition, thyroid cancer; format: cell-based; conditions: SNU7890, BRAF^V600E
FRO (BRAF^V600E) = test: In vitro cell growth inhibition, thyroid cancer; format: cell-based
B-CPAP (BRAF^V600E) = test: In vitro cell growth inhibition, thyroid cancer; format: cell-based; conditions: Homo sapiens, BCPAP
NPA (BRAF^V600E) = test: In vitro cell growth inhibition, thyroid cancer; format: cell-based
8505C (BRAF^V600E) = test: In vitro cell growth inhibition, thyroid cancer; format: cell-based; conditions: Homo sapiens
ARO (BRAF^V600E) = test: In vitro cell growth inhibition, thyroid cancer; format: cell-based
SNU80 (BRAF^G468R) = test: In vitro cell growth inhibition, thyroid cancer; format: cell-based
CAL-62 (KRAS^G12R) = test: In vitro cell growth inhibition, thyroid cancer; format: cell-based; conditions: Homo sapiens
[8] = Conc 1, first (lowest) concentration
[9] = Conc 2, second (intermediate) concentration
[10] = Conc 3, third (highest) concentration

Chain of CSF1R (FMS) (P07333 20-972): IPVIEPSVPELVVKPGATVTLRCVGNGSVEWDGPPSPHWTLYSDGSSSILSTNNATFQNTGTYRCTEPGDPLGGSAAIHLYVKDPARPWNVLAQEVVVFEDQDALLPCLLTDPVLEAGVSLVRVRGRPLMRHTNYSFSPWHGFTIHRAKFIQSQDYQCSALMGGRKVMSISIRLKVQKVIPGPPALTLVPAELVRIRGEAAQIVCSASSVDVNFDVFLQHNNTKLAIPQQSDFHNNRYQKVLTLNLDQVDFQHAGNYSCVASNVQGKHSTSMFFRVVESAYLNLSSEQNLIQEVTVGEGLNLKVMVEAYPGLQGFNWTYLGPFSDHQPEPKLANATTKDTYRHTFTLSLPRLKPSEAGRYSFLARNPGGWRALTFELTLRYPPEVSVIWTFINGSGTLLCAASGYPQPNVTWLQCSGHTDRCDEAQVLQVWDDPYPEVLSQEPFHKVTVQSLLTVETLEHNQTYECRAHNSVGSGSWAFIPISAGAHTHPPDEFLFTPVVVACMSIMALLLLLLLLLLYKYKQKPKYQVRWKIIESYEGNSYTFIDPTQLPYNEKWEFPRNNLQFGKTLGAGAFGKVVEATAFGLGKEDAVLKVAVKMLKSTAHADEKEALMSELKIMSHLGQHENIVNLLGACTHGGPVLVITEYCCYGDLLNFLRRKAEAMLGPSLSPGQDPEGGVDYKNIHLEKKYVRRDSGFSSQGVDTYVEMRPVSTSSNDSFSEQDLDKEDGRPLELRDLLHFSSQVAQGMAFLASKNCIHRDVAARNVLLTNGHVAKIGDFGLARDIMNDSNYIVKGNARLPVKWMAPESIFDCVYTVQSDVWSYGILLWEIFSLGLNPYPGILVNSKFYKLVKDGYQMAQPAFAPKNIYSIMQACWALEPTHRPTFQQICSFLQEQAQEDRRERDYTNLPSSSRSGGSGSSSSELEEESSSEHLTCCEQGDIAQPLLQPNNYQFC
Chain of DDR1 (Q08345 19-913): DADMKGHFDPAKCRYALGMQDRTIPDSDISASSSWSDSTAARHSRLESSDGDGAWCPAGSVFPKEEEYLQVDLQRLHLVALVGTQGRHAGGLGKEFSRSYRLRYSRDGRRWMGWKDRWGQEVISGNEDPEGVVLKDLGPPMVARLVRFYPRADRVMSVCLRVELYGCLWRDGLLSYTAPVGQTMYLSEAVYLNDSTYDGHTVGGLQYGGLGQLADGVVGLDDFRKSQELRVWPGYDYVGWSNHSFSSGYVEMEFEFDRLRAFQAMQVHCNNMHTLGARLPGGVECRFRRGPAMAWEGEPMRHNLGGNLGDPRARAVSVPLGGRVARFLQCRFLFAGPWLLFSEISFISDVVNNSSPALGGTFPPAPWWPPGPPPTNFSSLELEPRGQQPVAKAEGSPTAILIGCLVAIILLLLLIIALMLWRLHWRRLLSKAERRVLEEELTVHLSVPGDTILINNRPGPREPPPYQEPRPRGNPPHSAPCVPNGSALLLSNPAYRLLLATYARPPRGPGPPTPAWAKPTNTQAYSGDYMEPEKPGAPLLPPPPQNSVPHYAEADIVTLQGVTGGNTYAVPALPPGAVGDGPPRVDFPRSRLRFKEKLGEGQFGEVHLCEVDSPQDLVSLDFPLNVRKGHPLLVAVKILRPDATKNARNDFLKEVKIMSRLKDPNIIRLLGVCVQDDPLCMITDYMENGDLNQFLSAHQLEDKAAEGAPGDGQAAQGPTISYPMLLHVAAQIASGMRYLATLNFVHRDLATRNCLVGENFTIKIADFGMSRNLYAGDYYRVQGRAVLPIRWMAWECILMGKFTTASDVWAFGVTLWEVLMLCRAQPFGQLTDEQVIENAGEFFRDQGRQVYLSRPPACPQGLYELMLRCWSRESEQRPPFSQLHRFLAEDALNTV

For `CC(C)(C)c1nc(-c2cccc(NS(=O)(=O)c3c(F)cccc3F)c2F)c(-c2ccnc(N)n2)s1` [Dabrafenib], which “% P/T-MEK” value (P-MEK / total MEK; [8]) is on record?
Its value is 125%.

And the “% P/T-MEK” value (P-MEK / total MEK; [9])?
The value was 150%.

What about the “% P/T-MEK” value (P-MEK / total MEK; [10]) of the same compound?
The value was 75%.

What about the GI50 (SK-MEL-28 (BRAF^V600E)) of the same compound?
The GI50 was under 0.1 nM.

And the GI50 (A375 (BRAF^V600E))?
The GI50 was under 0.1 nM.

What about the GI50 (SK-MEL-2 (NRAS^Q61R)) of the same compound?
Its GI50 is 204 nM.

What about the GI50 (SK-MEL-30 (NRAS^Q61K)) of the same compound?
The GI50 was 258 nM.

And the IC50 ([1]; read-out: IC50 pERK)?
Its IC50 is over 10000 nM.

And the IC50 ([1]; read-out: IC50 pMEK)?
The IC50 was over 10000 nM.

And the IC50 ([2]; read-out: IC50 pERK)?
Its IC50 is over 10000 nM.

And the IC50 ([2]; read-out: IC50 pMEK)?
Its IC50 is over 10000 nM.

And the IC50 ([3]; read-out: IC50 pERK)?
The IC50 was over 10000 nM.

And the IC50 ([3]; read-out: IC50 pMEK)?
Its IC50 is over 10000 nM.

And the GI50 (LS174T (KRAS^G12D))?
Its GI50 is over 10000 nM.

And the GI50 (LS513 (KRAS^G12D))?
The GI50 was 3060 nM.

And the GI50 (HCT116 (KRAS^G13D))?
Its GI50 is over 10000 nM.

What about the GI50 (Lovo (KRAS^G13D)) of the same compound?
Its GI50 is 214 nM.

What about the GI50 (Calu-6 (KRAS^Q61K)) of the same compound?
The GI50 was 618 nM.

And the GI50 (Calu-1 (KRAS^G12C))?
Its GI50 is 904 nM.

For `Cc1ccc(NC(=O)c2ccnc(C(F)(F)F)c2)cc1-c1cc(OCCO)nc(N2CCOCC2)c1` [LXH254], which “% P/T-MEK” value (P-MEK / total MEK; [8]) is on record?
Its value is 80%.

And the “% P/T-MEK” value (P-MEK / total MEK; [9])?
The value was 70%.

And the “% P/T-MEK” value (P-MEK / total MEK; [10])?
The value was 10%.

Which mPFS (NRAS-mutant melanoma) does the source give for `Cn1cnc2c(F)c(Nc3ccc(Br)cc3F)c(C(=O)NOCCO)cc21` [binimetinib] here?
Its mPFS is 2.8 months.

What about the overall response rate (NRAS-mutant melanoma) of the same compound?
The overall response rate was 15%.

What does the source list for `CCCS(=O)(=O)Nc1ccc(F)c(C(=O)c2c[nH]c3ncc(-c4ccc(Cl)cc4)cc23)c1F` [Vemurafenib, reference compound]?
IC50 (CSF1R (FMS)): > 10000 nM; IC50 (DDR1): > 10000 nM; IC50 (DDR2): > 10000 nM; IC50 ([4]; read-out: IC50 pERK): 28 nM; IC50 ([4]; read-out: IC50 pMEK): 32 nM; IC50 ([5]; A-375, read-out: IC50 pERK): 20 nM; IC50 ([5]; A-375, read-out: IC50 pMEK): 73 nM; IC50 ([6]; read-out: IC50 pERK): > 10000 nM; IC50 ([6]; read-out: IC50 pMEK): > 10000 nM; IC50 ([7]; read-out: IC50 pERK): > 10000 nM; IC50 ([7]; read-out: IC50 pMEK): > 10000 nM; GI50 (SK-MEL-28 (BRAF^V600E)): 77 ± 17 nM; GI50 (A375 (BRAF^V600E)): 75 ± 12 nM; GI50 (SK-MEL-2 (NRAS^Q61R)): > 10000 nM; GI50 (SK-MEL-30 (NRAS^Q61K)): > 10000 nM; IC50 ([1]; read-out: IC50 pERK): > 10000 nM; IC50 ([1]; read-out: IC50 pMEK): > 10000 nM; IC50 ([2]; read-out: IC50 pERK): > 10000 nM; IC50 ([2]; read-out: IC50 pMEK): > 10000 nM; IC50 ([3]; read-out: IC50 pERK): > 10000 nM; IC50 ([3]; read-out: IC50 pMEK): > 10000 nM; GI50 (HT-29 (BRAF^V600E)): 110 nM; GI50 (Colo-205 (BRAF^V600E)): 65 nM; GI50 (LS174T (KRAS^G12D)): > 10000 nM; GI50 (LS513 (KRAS^G12D)): > 10000 nM; GI50 (HCT116 (KRAS^G13D)): > 10000 nM; GI50 (Lovo (KRAS^G13D)): 4020 nM; GI50 (Calu-6 (KRAS^Q61K)): > 10000 nM; GI50 (Calu-1 (KRAS^G12C)): 7480 nM; GI50 (SNU790 (BRAF^V600E)): 190 nM; GI50 (FRO (BRAF^V600E)): 1760 nM; GI50 (B-CPAP (BRAF^V600E)): 31 nM; GI50 (NPA (BRAF^V600E)): 44 nM; GI50 (8505C (BRAF^V600E)): 3440 nM; GI50 (ARO (BRAF^V600E)): 5260 nM; GI50 (SNU80 (BRAF^G468R)): 2850 nM; GI50 (CAL-62 (KRAS^G12R)): > 10000 nM
